Experimental data as given in ChEMBL document CHEMBL3045822, “Growth retarding activity of lichen substances against the polyphagous herbivorous insect Spodoptera littoralis” (1994).
Activity calls are given as the source filed them. The calls are words filed in the database; no cut-off is given here.

What was measured:
Spodoptera littoralis [1] = assay: Prolongation of duration of larval period in Spodoptera littoralis fed with diet containing compound at 110 umol/gm dry weight treated for 6 days measured after transferring onto control diet by chronic feeding bioassay (reference value: 17 to 20 days); format: functional
Spodoptera littoralis [2] = assay: Toxicity against neonate larval stage of Spodoptera littoralis fed with diet containing compound assessed as reduction in larval survival at 15 to 110 umol/gm dry weight after 6 days by chronic feeding assay; format: functional, organism-based
Spodoptera littoralis [3] = assay: Change in pupal weight of Spodoptera littoralis fed with diet containing compound at 110 umol/gm dry weight treated for 6 days measured after transferring onto control diet by chronic feeding bioassay (reference value: 0.40 +/-0.05 gms); format: functional
Spodoptera littoralis [4] = assay: Growth retarding activity against neonate larval stage of Spodoptera littoralis fed with diet containing compound measured per gm of dry weight after 6 days by chronic feeding bioassay; format: functional; conditions: 144 h, read-out: ED50
Spodoptera littoralis [5] = assay: Induction of imago developmental aberrations with imperfect wings in Spodoptera littoralis fed with diet containing compound at 110 umol/gm dry weight treated for 6 days measured after transferring onto control diet by chronic feeding bioassay; format: functional
Spodoptera littoralis [6] = assay: Toxicity against neonate larval stage of Spodoptera littoralis fed with diet containing compound assessed as reduction in larval survival measured per gm dry weight after 6 days by chronic feeding assay; format: functional; conditions: 144 h, read-out: ED50
Spodoptera littoralis [7] = assay: Growth retarding activity against neonate larval stage of Spodoptera littoralis fed with diet containing compound assessed as larval weight at 41 umol/gm dry weight after 6 days by chronic feeding bioassay (reference value: 100%); format: functional
Spodoptera littoralis [8] = assay: Growth retarding activity against neonate larval stage of Spodoptera littoralis fed with diet containing compound assessed as larval weight after 6 days by chronic feeding bioassay (reference value: 100%); format: functional
Spodoptera littoralis [9] = assay: Growth retarding activity against neonate larval stage of Spodoptera littoralis fed with diet containing compound assessed as larval weight at 94 umol/gm dry weight after 6 days by chronic feeding bioassay (reference value: 100%); format: functional
Spodoptera littoralis [10] = assay: Growth retarding activity against neonate larval stage of Spodoptera littoralis fed with diet containing compound assessed as larval weight at 104 umol/gm dry weight after 6 days by chronic feeding bioassay (reference value: 100%); format: functional
Spodoptera littoralis [11] = assay: Growth retarding activity against neonate larval stage of Spodoptera littoralis fed with diet containing compound assessed as larval weight at 70 umol/gm dry weight after 6 days by chronic feeding bioassay (reference value: 100%); format: functional
Spodoptera littoralis [12] = assay: Reduction in number of imagoes emerging from pupae in Spodoptera littoralis fed with diet containing compound at 110 umol/gm dry weight after 6 days by chronic feeding bioassay (reference value: 90%); format: functional; parameters: scale not given: the % may be the effect or the level left

Row | Compound | Time (Spodoptera littoralis [1]) | Activity (Spodoptera littoralis [2]) | Activity (Spodoptera littoralis [3]) | EC50 (Spodoptera littoralis [4]) | other results
1 | COC(=O)/C(=C1/OC(=O)C(c2ccccc2)=C1O)c1ccccc1 [VULPINIC ACID] | 23 days | inactive | 0.32 g | 17.2 µmol/g | Activity (Spodoptera littoralis [5]): 14%
2 | CC(=O)C1=C(O)C=C2Oc3c(C(C)=O)c(O)c(C)c(O)c3[C@]2(C)C1=O [(-)-USNIC ACID] |  |  |  | 1.2 µmol/g | EC50 (Spodoptera littoralis [6]): 8.6 µmol/g
3 | O=C1O/C(=C2/C(=O)Oc3ccccc32)C(O)=C1c1ccccc1 [CALYCIN] | 21 days | inactive | 0.33 g | 37.6 µmol/g | Activity (Spodoptera littoralis [5]): 44%
4 | CCCCCC(=O)Cc1cc(O)c(O)c2c1C(=O)Oc1cc(O)c(C(=O)O)c(CCCCC)c1O2 [OXYPHYSODIC ACID] | 19 days | inactive | 0.33 g | 11.2 µmol/g | Activity (Spodoptera littoralis [7]): 15%; Activity (Spodoptera littoralis [5]): 50%
5 | CCCCCC(=O)Cc1cc(O)cc2c1C(=O)Oc1cc(O)c(C(=O)O)c(CCCCC)c1O2 [PHYSODIC ACID] |  | inactive |  | > 110 µmol/g | 
6 | Cc1cc(O)c(C=O)c2c1C(=O)Oc1c(C)c(O)c3c(c1O2)C(O)OC3=O (stereo not drawn) [NORSTICTIC ACID] | 17 days | inactive | 0.33 g | 32 µmol/g | Activity (Spodoptera littoralis [8]): 18%; Activity (Spodoptera littoralis [9]): 18%
7 | COc1cc(C)c2c(c1C=O)Oc1c(c(C)c(O)c3c1C(O)OC3=O)OC2=O (stereo not drawn) [STICTIC ACID] | 20 days | inactive | 0.41 g | 57.5 µmol/g | Activity (Spodoptera littoralis [10]): 27%
8 | O=C1OC2=C(c3ccccc3)C(=O)OC2=C1c1ccccc1 [PULVINIC DILACTONE] |  | inactive |  | > 110 µmol/g | 
9 | COc1cc(C)c(C(=O)Oc2cc(C)c(C(=O)O)c(O)c2)c(O)c1 [EVERNIC ACID] |  | inactive |  | > 110 µmol/g | 
10 | COC(=O)c1c(C)cc(OC(=O)c2c(C)cc(O)c(C=O)c2O)c(C)c1O [ATRANORIN] |  | inactive |  | > 110 µmol/g | Activity (Spodoptera littoralis [8]): 51%; Activity (Spodoptera littoralis [11]): 52%
11 | CC(=O)C1=C(O)C=C2Oc3c(C(C)=O)c(O)c(C)c(O)c3[C@@]2(C)C1=O [(+)-USNIC ACID] |  |  |  | 4.5 µmol/g | EC50 (Spodoptera littoralis [6]): 90.8 µmol/g
12 | Cc1cc(O)c(C=O)c2c1C(=O)Oc1c(CO)c(O)c3c(c1O2)C(O)OC3=O (stereo not drawn) [SLAZINIC ACID] | 24 days | inactive | 0.4 g | 29.2 µmol/g | 
13 | Cc1cc(O)c(C=O)c2c1C(=O)Oc1c(COC(=O)/C=C/C(=O)O)c(O)c(C(=O)O)c(C)c1O2 [FUMARPROTOCETRARIC ACID] | 24 days | inactive | 0.45 g | 30.5 µmol/g | 
14 | COc1cc(C(=O)O)c2c(c1C)OC(=O)c1c(C)cc(O)c(C=O)c1O2 [PSOROMIC ACID] | 20 days | inactive | 0.41 g | 46.2 µmol/g | 
15 | COC(=O)C(Cc1ccccc1)NC(=O)/C(=C1/OC(=O)C(c2ccccc2)=C1O)c1ccccc1 (stereo not drawn) [RHIZOCARPIC ACID] | 19 days | inactive | 0.28 g | 70.8 µmol/g | Activity (Spodoptera littoralis [12]): 25%
